# Legend:
# [1] = tested on: HiPS-ELC-TFs; assay: TEER of HiPS-ELC-TFs (tight junction function); assay type: cell-based, human; conditions: under action of C10 (tight junction opener); without C10 about 430; FIG. 18A
# Source text: The tight junction function was confirmed by measuring TEER.
# [2] = tested on: CYP3A4
# Source text: (§1) As comparative cells, Caco-2 cells and LS180 cells were similarly investigated.
# [3] = tested on: ANPEP; assay: ANPEP expression by quantitative real-time RT-PCR in cells differentiating from human iPS cells to enterocyte-like cells; assay type: cell-based; conditions: compound added with BIO and DAPT, 5 days culture; versus control without the compounds; FIG. 2B
# Procedure: (§2) The definitive endoderm cells generated from the human iPS cell line (Tic) by the method described in Example 1 above were further cultured for 15 days using the medium 3. During a period from day 4 to day 19 after the initiation of differentiation induction, BIO (5 μM) and DAPT (10 μM) were added to the culture system. Simultaneously with the addition of the BIO and the DAPT, the cells were further cultured for 5 days using the medium 3 supplemented with any one of phorbol-myristate-acetate (PMA), transforming growth factor β1 (TGEβ1), Wortmannin, Noggin, SB431542, Follistatin, EGF, R-spondin1, Pentagastrin, or Wnt3a (FIG. 2A and FIG. 3A).
# (§3) With regard to the measurement of the enterocyte markers ANPEP and VILLIN, each of the enterocyte markers was measured by a quantitative real-time RT-PCR method using SYBR Green gene expression assays (APPLIED BIOSYSTEMS). […] Thus, high expressions of ANPEP and VILLIN were found when the cells were cultured in the system containing SB431542, EGF, or Wnt3a.
# The quantitative real-time RT-PCR was performed by the following method. With the use of ISOGEN (NIPPON GENE), total RNA was collected from the enterocyte-like cells obtained by differentiation induction from the human iPS cells. Each total RNA was treated with RNase-free DNaseI (NEW ENGLAND BIOLABS), and then subjected to a reverse transcription reaction using […] VILO cDNA Synthesis Kit (INVITROGEN) to synthesize complementary DNA (cDNA). As a positive control, the total RNA (CLONTECH, BIOCHAIN four lots in total) of a human adult small intestine (human adult intestine: hereinafter sometimes referred to as “AI”) tissue to be used was similarly subjected to cDNA synthesis. A quantitative real-time RT-PCR method using SYBR Green gene expression assays (APPLIED BIOSYSTEMS) was performed, and quantification was performed with STEPONEPLUS real-time PCR System (APPLIED BIOSYSTEMS).
# [4] = tested on: VILLIN; assay: VILLIN expression by quantitative real-time RT-PCR in cells differentiating from human iPS cells to enterocyte-like cells; assay type: cell-based; conditions: compound added with BIO and DAPT, 5 days culture; versus control without the compounds; FIG. 3B
# Procedure: as §2, §3
# The quantitative real-time RT-PCR was performed by the following method. […] A quantitative real-time RT-PCR method using SYBR Green gene expression assays (APPLIED BIOSYSTEMS) was performed, and quantification was performed with STEPONEPLUS real-time PCR System (APPLIED BIOSYSTEMS).
# [5] = tested on: CYP3A4; remark: listed apart in the source
# Procedure: As control cells, Caco-2 cells were similarly subjected to measurement. The expression level of the gene was measured by a real-time RT-PCR method.
# as §1
# [6] = tested on: CYP3A4 gene
# [7] = tested on: CYP3A4 protein
Compound,CYP3A4 expression induction [2],expression of ANPEP [3],expression of VILLIN [4],other results
"CCCCCCCCCC(=O)O [C10, capric acid]",,,,TEER value of the HiPS-ELC-TFs [1]: ~0 Ω·cm^2
"CCC1(c2ccccc2)C(=O)NC(=O)NC1=O [PB, phenobarbital]",significant expression induction,,,
"CCCCCCCCCCCCCC(=O)O[C@@H]1[C@@H](C)[C@@]2(O)[C@@H](C=C(CO)C[C@]3(O)C(=O)C(C)=C[C@@H]23)[C@@H]2C(C)(C)[C@]12OC(C)=O [PMA, phorbol-myristate-acetate]",,high value,,
NC(=O)c1ccc(-c2nc(-c3ccc4c(c3)OCO4)c(-c3ccccn3)[nH]2)cc1 [SB431542],,high value,high value,
"C=C1CC[C@H](O)C/C1=C/C=C1\CCC[C@]2(C)[C@@H]([C@H](C)CCCC(C)C)CC[C@@H]12 [VD3, vitamin D3]",significant expression induction,,,CYP3A4 induction [5]: confirmed; CYP3A4 gene expression level increase as compared to DMSO action group [6]: about 100 fold; CYP3A4 protein expression level [7]: increased
epidermal growth factor [EGF],,high value,high value,
